Laboratory results reported in patent US11241436B2, “Autophagy inducers for treatment of CNS conditions” (Northwestern University, priority 2017, dated 2022).

Tests used:
[1] = test system: Hela cells stably expressing GFP-LC3; test: GFP-LC3 puncta in Hela cells stably expressing GFP-LC3, with or without bafilomycin A1; assay type: cell-based; settings: for numbers of GFP-LC3 puncta (autophagosomes): Hela cells, normal medium, compared with starvation; for accumulation of GFP-LC3 puncta, LC3-II and p62 (autophagic flux): co-treated with lysosomal inhibitor bafilomycin A1, compared to normal conditions
From the text: Results represent mean±s.e.m. Statistics are comparing the indicated value with or without BafA 1 to the one under the normal condition.
Accordingly, an important translational question is how to reduce Beclin 2 activity to maintain CB sensitivity and prevent drug tolerance induced by repeated cannabinoid exposure. To avoid the technical difficulty and risk of directly deleting Beclin 2 in vivo (such as injecting shRNAs or CRISPR/Cas9 constructs), which may disrupt Beclin 2-regulated autophagy, a novel and more convenient strategy to achieve the same goal via modulating the Beclin 2 interactome was developed and tested, which will not affect the essential autophagy function of Beclin 2 (FIG. 6A). Beclin 2 is present in two distinct protein complex pools, the Beclin 2-class Ill phosphatidylinositol 3-kinase complex for autophagy, and the Beclin 2-GASP1-GPCR complex in which Beclin 2-GASP1 binding is required for GPCR degradation. Thus, it was hypothesized that Beclin 2 is a limiting factor that regulates the balance between the two lysosomal degradation pathways, and that competitive recruitment of Beclin 2 to the autophagy machinery by activating autophagy prevents it from functioning in CB1R downregulation and thus restores CB1R functionality and reverses drug tolerance. To test this hypothesis, whether autophagy activation by brain-penetrable inducers inhibits the Beclin 2-GASP1 interaction was first examined. […] To determine autophagy activation by the two compounds, several markers of autophagy induction were analyzed, including formation of autophagosomes in cells and transgenic mice expressing GFP-tagged LC3 (an autophagosome marker), degradation of p62 (an autophagy substrate protein), and conversion of LC3 from the non-lipidated form (LC3-1) to the autophagosome-associated lipidated form (LC3-11). […]
To determine autophagy activation by the 2 compounds ML246 and Rg2, several markers of autophagy induction were analyzed, including formation of autophagosomes in cells and transgenic mice expressing GFP-tagged MAP1LC3/LC3 (microtubule-associated protein 1 light chain 3; an autophagosome marker), degradation of SQSTM1/p62 (sequestosome 1; an autophagy receptor and substrate protein), and conversion of LC3 from the non-lipidated form (LC3-I) to the phagophore- and autophagosome-associated lipidated form (LC3-II). […]

LC3 and p62/SQSTM1 = test: Western blot detection of LC3 and p62/SQSTM1 in mouse tissues; assay type: in vivo; settings: for LC3-II conversion / levels of p62 (SQSTM1): mouse brain
Method: WAT, white adipose tissue; BAT, brown adipose tissue.
Autophagy analyses. For assessment of autophagy in vivo, 8-week old male WT and Becn 1FA/FA mice crossed to GFP-LC3 mice were exercised for 90 minutes, or starved for 48 h, and then anaesthetized by isoflurane and perfused with 4% PFA Brain and muscle samples were fixed in 4% PFA overnight, 15% sucrose for 4 h and 30% sucrose overnight before frozen sections were prepared. The number of GFP-LC3 puncta per unit area of tissue was quantified by fluorescence microscopy. Autophagy in vivo was also analyzed by western blot analysis of brain tissue extracts with antibodies against LC3 and p62/SQSTM1 (see below for details).
Western blot analyses. Cell or mouse muscle and brain extracts were prepared in lysis buffer containing 50 mM Tris (pH 7.4), 150 mM NaCl, 1 mM EDTA, 1% Triton X-100, halt proteinase inhibitor cocktail (ThermoFisher Scientific) and halt phosphatase inhibitor cocktail (ThermoFisher Scientific), and subjected to western blot analysis with anti-LC3 (Novus Biologicals, NB100-2220), anti-SQSTM 1 (Abnova, H00008878-M01), anti-Af342 (Invitrogen; 700254), anti-APP (Biolegend; 803001), HRP-conjugated GFP antibody (Santa Cruz Biotechnology, sc9996), anti-HA (Cell Signaling Technology, C29F4), anti-ATG7 (Sigma Aldrich; A2856), anti-LDLR (Abeam, ab52818), anti-LRP 1 (Abeam, ab92544), and anti-ACTB/f3-actin-HRP (Santa Cruz Biotechnology, sc47778 HRP) antibodies. The band intensity was analyzed using the ImageJ software.

[2] = test system: HTT65Q and HTT103Q aggregates; test: Filter trap assay of polyQ HTT aggregates in HeLa cells; assay type: cell-based
Method: Cells were transfected with nontargeting control (NC) or ATG7 siRNA 24 h prior to Rg2 treatment for another 24 h. HTT aggregates were analyzed by lysate filtration through 0.2 μm nitrocellulose membrane. Cells treated with tetracycline served as negative control.
ML246 promotes the removal of intracellular aggregates formed by polyglutamine (polyQ)-expansion proteins. HeLa cell lines stably expressing tetracycline-repressible expanded polyQ-repeat protein HTT (huntingtin) was used as a model, HTT65Q and HTT103Q. In contrast to the HTT protein with the normal number of glutamine repeats (HTT25Q), HTT65Q and HTT103Q formed insoluble polyQ aggregates larger than 0.2-μm diameter, which can be detected by filter trap assay. […] Fluorescence imaging further confirmed that ML246 administration decreased the number of cells positive for HTT aggregates, which is also in an ATG7-dependent manner (FIG. S6B).
Accordingly, whether Rg2 affects the clearance of proteinaceous inclusions in vitro was next determined, using HeLa cell lines expressing tetracycline-repressible expanded polyglutamine (polyQ)-repeat protein HTT (huntingtin), HTT65Q and HTT103Q. Unlike the HTT protein with the normal number of glutamine repeats (HTT25Q), HTT65Q and HTT103Q formed insoluble polyQ aggregates larger than 0.2-μm diameter, which were detected by filter trap assays (FIG. 5A).
Filter trap assay. HeLa cells stably expressing CFP-HTT25Q, CFP-HTT65Q and CFP-HTT103Q were treated with 100 ng/ml tetracycline (IBI Scientific, IB02200) for 48 h, or 0.5 μM ML246 for 24 h with control or ATG7 siRNA (GE Dharmacon ON-TARGETplus control or ATG7 SMARTpool siRNA) for 48 h. Cells were then collected and lysed in lysis buffer containing 0.5% NP-40 for 30 min at 4° C. After centrifugation, the pellet was digested with 0.5 mg/ml DNasel (in 20 mM Tris-Cl, pH 8.0) for 1 h at 37° C., and dissolved into lysates containing insoluble aggregates by 2% SDS, 50 mM DTT and 20 mM EDTA. The lysates were then added onto 0.2 μm nitrocellulose membrane that was pre-equilibrated with 2% SDS/TBS for 30 min, and were filtered through the membrane by gentle vacuum using the Bio-Dot SF microfiltration apparatus (Bio-Rad). The signal was detected by immunostaining with the HRP-conjugated GFP antibody (Santa Cruz Biotechnology, sc9996, 1:1000).

[3] = liver, muscle, brain, heart, white and brown adipose tissue

SMILES	numbers of GFP-LC3 puncta (autophagosomes) [1]	accumulation of GFP-LC3 puncta, LC3-II and p62 (autophagic flux) [1]	LC3-II conversion (LC3 and p62/SQSTM1)	levels of p62 (SQSTM1) (LC3 and p62/SQSTM1)	accumulation of HTT65Q and HTT103Q aggregates ([2]; 0.5 μM ML246, 24 h)	reduction of HTT65Q and HTT103Q aggregates ([2]; ML246 with knockdown of ATG7)	LC3-I to LC3-II conversion (LC3 and p62/SQSTM1; [3])	levels of SQSTM1 (LC3 and p62/SQSTM1; [3])	accumulation of HTT65Q and HTT103Q aggregates ([2]; Rg2, 24 h)	effect on HTT aggregates ([2]; Rg2 with knockdown of ATG7)
N=c1c2c(-c3ccccc3)c(-c3ccccc3)n(Cc3ccccc3)c2ncn1[C@H]1CC[C@H](O)CC1 [ML246]	markedly increased	more accumulation	not detect significant changes	decreased	decreased	prevents this reduction				
CC(C)=CCC[C@](C)(O)[C@H]1CC[C@]2(C)[C@@H]1[C@H](O)C[C@@H]1[C@@]3(C)CC[C@H](O)C(C)(C)[C@@H]3[C@@H](O[C@@H]3O[C@H](CO)[C@@H](O)[C@H](O)[C@H]3O[C@@H]3O[C@@H](C)[C@H](O)[C@@H](O)[C@H]3O)C[C@]12C [Rg2, ginsenoside Rg2]	markedly increased	more accumulation	not detect significant changes	decreased			increased	decreased levels	decreased accumulation	abolished
